Key:
[1] = test system: LPS-activated dendritic cells; test: LPS-induced activation of bone marrow-derived dendritic cells; type: cell-based, mouse
Method: Mouse bone marrow cells were flushed from the femurs and tibiae. The red blood cells were eliminated and the cells plated at a density of 1.0×10^6 cells/mL in RBMI complete medium containing 10% FCS plus 20 ng/ml GM-CSF. The medium was replaced on day 4, and the cells were harvested on day 6 to obtain immature DCs. To obtain mature DCs, LPS was added to the cultures at a final concentration of 100 ng/mL on day 6, and the cells were cultured for an additional 24 h, as previously described by Macia, L., et al. Impairment of dendritic cell functionality and steady-state number in obese mice. J Immunol 177, 5997-6006 (2006), which is incorporated by reference in its entirety. To test the anti-inflammatory effects of 9-PAHSA, immature BMDC were treated with 9-PAHSA in a dose response dependent manner in the presence of 100 ng/mL of LPS. The activation status of the BMDCs was evaluated by measuring the expression of MHCII and co-stimulatory molecules using Flow Cytometry and by the production of pro-inflammatory cytokines (IL-6, TNF, IL-12 and IL-1β) which was assessed by ELISA.
Mouse bone marrow cells were flushed from the femurs and tibiae. The red blood cells were lysed, and the cells were plated at a density of 0.5×10^6 cells/mL in RPMI 1640 Low medium (Gibco, USA) containing 10% FCS (Gibco, USA) and 20 ng/mL GM-CSF. […]
The immature dendritic cells obtained in the day 6 were maturated with LPS in the presence of different concentrations of 9-PAHSA varying between 100 ng/mL to 20 ug/mL. The cells were maturated for 24 h and the maturation status analyzed by cytokine production and co-stimulatory molecules expression.
The cells were analyzed by Multicolor Flow cytometry. […] The cells were analyzed with an LSR II flow cytometer (BD) and FlowJo software.
An ELISA assay (Biolegend) was used to measure the concentration of IL-12p70 protein in conditioned media from immature and mature BMDCs. This assay allowed for the detection of total IL-12p70 concentrations in the range of 15.6-1,000 pg/ml, and the results are expressed as pg/mL IL-12p70.

purified CEL = target: T1, purified CEL (Homo sapiens, UniProt P19835); test: FAHFA hydrolysis by purified CEL; type: biochemical; conditions: micellar concentrations of NaTC
T1 construct: purchased R&D Systems
T1 sequence (P19835 21-753): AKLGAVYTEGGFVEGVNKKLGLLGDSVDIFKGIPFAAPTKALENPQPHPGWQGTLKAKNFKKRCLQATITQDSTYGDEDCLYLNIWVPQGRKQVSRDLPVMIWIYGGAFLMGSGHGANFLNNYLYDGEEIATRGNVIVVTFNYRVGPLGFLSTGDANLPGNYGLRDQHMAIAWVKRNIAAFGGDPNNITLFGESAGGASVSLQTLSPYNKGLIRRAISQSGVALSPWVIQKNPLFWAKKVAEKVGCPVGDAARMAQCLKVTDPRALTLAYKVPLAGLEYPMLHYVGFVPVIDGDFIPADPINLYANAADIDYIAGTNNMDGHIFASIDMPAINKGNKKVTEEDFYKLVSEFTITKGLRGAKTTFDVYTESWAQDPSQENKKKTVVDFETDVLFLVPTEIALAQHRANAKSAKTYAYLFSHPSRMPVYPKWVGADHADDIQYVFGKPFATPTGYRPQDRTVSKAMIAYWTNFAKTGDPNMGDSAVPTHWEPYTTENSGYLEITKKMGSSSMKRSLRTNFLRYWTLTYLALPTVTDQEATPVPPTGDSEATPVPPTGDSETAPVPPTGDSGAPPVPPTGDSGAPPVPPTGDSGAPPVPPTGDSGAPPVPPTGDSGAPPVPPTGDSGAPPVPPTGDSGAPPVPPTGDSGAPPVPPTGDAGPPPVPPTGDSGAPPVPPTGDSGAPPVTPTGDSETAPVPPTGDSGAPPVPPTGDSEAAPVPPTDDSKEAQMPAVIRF
Excerpt: To confirm the identification of CEL as a FAHFA hydrolase, a small amount of purified enzyme (available commercially from R&D Systems) was used.

[2] = FAHFA hydrolysis assay (9-PAHSA to 9-HSA), liver lysate; conditions: liver lysate 1 mg/ml protein, 100 μM, 37° C., two hours

hydrolysis of 9-PAHSA (9-HSA production) (purified CEL): substantial hydrolysis
hydrolysis of 9-PAHSA to 9-HSA [2]: Substantial 9-HSA production
Structure (SMILES): CCCCCCCCCCCCCCCC(=O)OC(CCCCCCCCC)CCCCCCCC(=O)O (centres unmarked) [9-PAHSA, palmitoyl-9-hydroxystearic acid]
IL-12 production ([1]; LPS 100 ng/mL): blocks IL-12 production
expression of MHCII and co-stimulatory molecules (CD40, CD80, CD86) ([1]; LPS-induced): reducing expression of MHCII and co-stimulatory molecules
LPS-induced dendritic cell activation ([1]; dose response): prevents LPS-induced dendritic cell activation in a dose dependent manner

Reference: US10604473B2, “Lipids that increase insulin sensitivity and methods of using the same” (Beth Israel Deaconess Medical Center, Inc., priority 2013, dated 2020)
